According to BindingDB's records for patent US12371428 (Exelixis, 2025):

Tests used:
[1] = biological target: T1, Tyrosine-protein kinase Mer (Homo sapiens, UniProt Q12866); assay: Human Mer Kinase Assay
T1 sequence (Q12866 whole entry): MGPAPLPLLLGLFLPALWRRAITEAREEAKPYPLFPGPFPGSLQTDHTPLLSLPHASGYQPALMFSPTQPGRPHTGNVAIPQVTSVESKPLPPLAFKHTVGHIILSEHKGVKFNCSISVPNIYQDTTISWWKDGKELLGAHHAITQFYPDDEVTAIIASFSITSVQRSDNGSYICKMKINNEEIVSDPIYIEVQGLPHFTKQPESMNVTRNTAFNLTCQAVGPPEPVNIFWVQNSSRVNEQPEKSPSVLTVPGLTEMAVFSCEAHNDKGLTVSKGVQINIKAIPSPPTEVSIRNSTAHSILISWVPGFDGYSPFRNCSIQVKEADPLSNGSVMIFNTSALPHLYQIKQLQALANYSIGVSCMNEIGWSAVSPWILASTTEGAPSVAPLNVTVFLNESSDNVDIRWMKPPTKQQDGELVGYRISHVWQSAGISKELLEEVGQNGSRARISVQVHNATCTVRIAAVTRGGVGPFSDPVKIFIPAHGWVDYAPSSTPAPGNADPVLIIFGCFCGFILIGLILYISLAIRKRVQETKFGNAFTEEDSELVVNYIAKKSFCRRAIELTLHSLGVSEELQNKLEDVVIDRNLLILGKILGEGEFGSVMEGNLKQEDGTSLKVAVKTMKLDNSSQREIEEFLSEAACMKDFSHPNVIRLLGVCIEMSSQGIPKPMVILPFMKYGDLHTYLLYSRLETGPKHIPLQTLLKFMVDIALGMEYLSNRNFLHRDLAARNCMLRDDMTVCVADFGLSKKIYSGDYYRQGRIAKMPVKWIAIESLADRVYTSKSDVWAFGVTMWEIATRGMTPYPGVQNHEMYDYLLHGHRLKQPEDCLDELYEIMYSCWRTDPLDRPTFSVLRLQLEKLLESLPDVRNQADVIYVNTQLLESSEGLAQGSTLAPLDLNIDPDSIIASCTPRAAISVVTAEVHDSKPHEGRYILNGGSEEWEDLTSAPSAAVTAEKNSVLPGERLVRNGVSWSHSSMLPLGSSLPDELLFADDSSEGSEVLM
Procedure: Example C-1: Human Mer (residues R557-E882 with H628Q and R794A, 0.7 nM) was incubated with 8 mM MOPS pH 7.0, 0.2 mM EDTA, 30 mM NaCl, 250 μM […] (SEQ ID NO:2), 10 mM magnesium acetate, and 10 μM [γ-33P-ATP]. The reaction was initiated by the addition of the Mg/ATP mix. After incubation for 40 minutes at room temperature, the reaction was stopped by the addition of phosphoric acid to a concentration of 0.5%. A reaction aliquot of 10 μL was then spotted onto a P30 filtermat and washed four times for 4 minutes in 0.425% phosphoric acid and once in methanol prior to drying and scintillation counting. Incorporated 33P was measured using the Wallac Microbeta scintillation counter (Perkin Elmer).Example C-2: Human MER (residues 528-999; CarnaBio, 1 ng/well) was also incubated with enzymatic buffer (Cisbio) supplemented with 5 mM MgCl2 and 1 mM DTT. The mixture was added to the pre-plated compounds. The reaction was initiated upon addition of ATP at Km (40 μM). The reaction was incubated at room temperature for 60 min and stopped upon the addition of SA-XL665 and TK-antibody both diluted in EDTA-containing kinase detection buffer (Cisbio). The kinase activity was calculated as stated above and the IC50 values were reported.

[2] = biological target: Vascular endothelial growth factor receptor 2 (Homo sapiens, UniProt P35968); assay: Human KDR Kinase Assay
Sequence of Vascular endothelial growth factor receptor 2 (P35968 whole entry, the tested form may be a part): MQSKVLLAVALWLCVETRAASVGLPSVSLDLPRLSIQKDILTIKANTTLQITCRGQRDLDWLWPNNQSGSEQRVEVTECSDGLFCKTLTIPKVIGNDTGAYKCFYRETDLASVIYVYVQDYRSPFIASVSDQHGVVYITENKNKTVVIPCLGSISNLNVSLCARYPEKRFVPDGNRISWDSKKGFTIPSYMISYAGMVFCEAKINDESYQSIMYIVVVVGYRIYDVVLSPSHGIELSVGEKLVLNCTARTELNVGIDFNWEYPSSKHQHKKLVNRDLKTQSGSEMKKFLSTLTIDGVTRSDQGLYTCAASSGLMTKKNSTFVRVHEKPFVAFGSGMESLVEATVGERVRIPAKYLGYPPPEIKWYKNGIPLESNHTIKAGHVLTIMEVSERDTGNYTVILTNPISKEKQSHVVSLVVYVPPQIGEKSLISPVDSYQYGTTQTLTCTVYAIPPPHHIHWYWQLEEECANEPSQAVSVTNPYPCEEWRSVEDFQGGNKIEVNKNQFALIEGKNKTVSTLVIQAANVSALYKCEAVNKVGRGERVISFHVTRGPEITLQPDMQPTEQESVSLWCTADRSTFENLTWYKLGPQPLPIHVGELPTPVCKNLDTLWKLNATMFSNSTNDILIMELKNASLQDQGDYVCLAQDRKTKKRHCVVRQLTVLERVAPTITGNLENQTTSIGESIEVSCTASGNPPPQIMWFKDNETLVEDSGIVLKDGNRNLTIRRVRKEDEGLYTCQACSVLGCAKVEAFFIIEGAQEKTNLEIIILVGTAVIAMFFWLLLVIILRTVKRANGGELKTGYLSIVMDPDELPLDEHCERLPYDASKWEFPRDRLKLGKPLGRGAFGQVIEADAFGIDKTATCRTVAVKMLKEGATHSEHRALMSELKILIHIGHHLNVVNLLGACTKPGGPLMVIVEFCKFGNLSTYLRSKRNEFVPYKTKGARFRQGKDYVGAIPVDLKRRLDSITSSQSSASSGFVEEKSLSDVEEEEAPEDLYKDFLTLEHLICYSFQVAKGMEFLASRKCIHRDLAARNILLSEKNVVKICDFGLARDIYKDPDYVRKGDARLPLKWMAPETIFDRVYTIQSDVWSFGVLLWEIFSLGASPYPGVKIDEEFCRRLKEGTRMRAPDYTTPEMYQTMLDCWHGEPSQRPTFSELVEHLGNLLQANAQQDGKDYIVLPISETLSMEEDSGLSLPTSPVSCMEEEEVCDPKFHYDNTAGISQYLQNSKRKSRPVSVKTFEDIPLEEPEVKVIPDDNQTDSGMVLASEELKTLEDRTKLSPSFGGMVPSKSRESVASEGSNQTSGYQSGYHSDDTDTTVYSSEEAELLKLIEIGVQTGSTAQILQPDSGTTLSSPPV
Procedure: Example B-1: Human KDR (residues K790-V1356, 55 nM) was incubated with 8 mM MOPS pH 7.0, 0.2 mM EDTA, 0.33 mg/mL myelin basic protein, 10 mM magnesium acetate, and 10 μM [γ-33P-ATP]. The reaction was initiated by the addition of the Mg/ATP mix. After incubation for 40 minutes at room temperature, the reaction was stopped by the addition of phosphoric acid to a concentration of 0.5%. A reaction aliquot of 10 μL was then spotted onto a P30 filtermat and washed four times for 4 minutes in 0.425% phosphoric acid and once in methanol prior to drying and scintillation counting. Incorporated 33P was measured using the Wallac Microbeta scintillation counter (Perkin Elmer).Example B-2: Human KDR (residues 790-1356; CarnaBio, 0.1 ng/well) was also incubated with enzymatic buffer (Cisbio) supplemented with 5 mM MgCl2, 1 mM MnCl2, and 1 mM DTT. The mixture was added to the pre-plated compounds. The reaction was initiated upon addition of ATP at Km (4.0 μM). The reaction was incubated at room temperature for 40 min and stopped upon the addition of SA-XL665 and TK-antibody both diluted in EDTA-containing kinase detection buffer (Cisbio). The kinase activity was calculated as stated above and the IC50 values were reported.

[3] = biological target: Hepatocyte growth factor receptor (Homo sapiens, UniProt P08581); assay: Human Met Kinase Assay
Sequence of Hepatocyte growth factor receptor (P08581 whole entry, the tested form may be a part): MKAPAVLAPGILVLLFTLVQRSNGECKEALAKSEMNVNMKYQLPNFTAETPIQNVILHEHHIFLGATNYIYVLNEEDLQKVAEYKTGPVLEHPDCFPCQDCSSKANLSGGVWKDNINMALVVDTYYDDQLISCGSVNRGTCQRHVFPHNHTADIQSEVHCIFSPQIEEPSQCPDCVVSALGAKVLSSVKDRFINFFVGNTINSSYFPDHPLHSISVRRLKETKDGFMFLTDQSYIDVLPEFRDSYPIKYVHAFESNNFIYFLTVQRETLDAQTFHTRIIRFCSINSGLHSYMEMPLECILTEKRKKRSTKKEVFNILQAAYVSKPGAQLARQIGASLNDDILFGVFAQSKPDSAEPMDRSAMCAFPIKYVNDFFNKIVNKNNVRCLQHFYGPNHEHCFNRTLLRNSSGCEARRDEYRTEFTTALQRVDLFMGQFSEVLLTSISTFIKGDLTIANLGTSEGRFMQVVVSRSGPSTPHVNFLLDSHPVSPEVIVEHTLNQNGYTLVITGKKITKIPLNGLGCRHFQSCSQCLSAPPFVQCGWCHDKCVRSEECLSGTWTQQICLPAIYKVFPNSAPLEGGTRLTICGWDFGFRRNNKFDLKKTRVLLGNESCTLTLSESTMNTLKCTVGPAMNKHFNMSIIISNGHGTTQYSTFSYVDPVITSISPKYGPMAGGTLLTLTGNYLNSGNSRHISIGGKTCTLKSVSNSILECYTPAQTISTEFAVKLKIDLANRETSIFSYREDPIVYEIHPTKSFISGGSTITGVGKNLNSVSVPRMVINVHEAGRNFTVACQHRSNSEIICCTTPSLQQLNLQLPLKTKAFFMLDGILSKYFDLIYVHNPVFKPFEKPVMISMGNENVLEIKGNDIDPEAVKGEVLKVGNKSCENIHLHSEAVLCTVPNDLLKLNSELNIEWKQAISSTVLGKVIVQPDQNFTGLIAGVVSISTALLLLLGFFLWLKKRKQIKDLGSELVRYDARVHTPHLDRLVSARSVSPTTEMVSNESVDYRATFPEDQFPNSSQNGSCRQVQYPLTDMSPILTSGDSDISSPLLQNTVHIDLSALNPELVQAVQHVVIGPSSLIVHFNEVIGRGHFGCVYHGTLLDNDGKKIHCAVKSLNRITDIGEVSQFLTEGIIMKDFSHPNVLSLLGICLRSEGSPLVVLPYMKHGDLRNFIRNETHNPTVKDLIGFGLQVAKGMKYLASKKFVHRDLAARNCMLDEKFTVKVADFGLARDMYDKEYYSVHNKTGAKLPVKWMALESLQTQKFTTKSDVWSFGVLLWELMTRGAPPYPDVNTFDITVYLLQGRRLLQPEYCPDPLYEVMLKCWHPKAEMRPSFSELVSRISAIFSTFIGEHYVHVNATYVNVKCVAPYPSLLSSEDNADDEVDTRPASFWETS
Procedure: Example D-1: Human Met (residues R974-S1390 with A1209G and V1290L, 3.4 nM) was incubated with 8 mM MOPS pH 7.0, 0.2 mM EDTA, 250 µM […] (SEQ ID NO:3), 1 mM sodium orthovanadate, 5 mM […], 10 mM magnesium acetate, and 10 μM [γ-33P-ATP]. The reaction was initiated by the addition of the Mg/ATP mix. After incubation for 40 minutes at room temperature, the reaction was stopped by the addition of phosphoric acid to a concentration of 0.5%. A reaction aliquot of 10 μL was then spotted onto a P30 filtermat and washed four times for 4 minutes in 0.425% phosphoric acid and once in methanol prior to drying and scintillation counting. Incorporated 33P was measured using the Wallac Microbeta scintillation counter (Perkin Elmer).Example D-2: Human MET (residues 956-1390; CarnaBio, 0.1 ng/well) was also incubated with enzymatic buffer (Cisbio) supplemented with 5 mM MgCl2, 1 mM DTT and 1 mM MnCl2. The mixture was added to the pre-plated compounds. […] The reaction was incubated at room temperature for 40 min and stopped upon the addition of SA-XL665 and TK-antibody both diluted in EDTA-containing kinase detection buffer (Cisbio). The kinase activity was calculated as stated above and the IC50 values were reported.

Measured: IC50

COc1cc2nccc(Oc3ccc(NC(=O)C4C(=O)C(c5ccc(F)cc5)=C(C)N=C4C)cc3F)c2nc1OC (stereo unspecified) [US12371428, Compound 154]
< 100 nM: all assays above

COCCOc1ccc2nccc(Oc3ccc(NC(=O)C4=C(C)N=C(C)C(c5ccc(F)cc5)C4O)cc3F)c2n1 (stereo unspecified) [US12371428, Compound 349]
< 100 nM: all assays above
